Tests used:
[1] = target: ALK tyrosine kinase receptor (Homo sapiens, UniProt Q9UM73); assay: Inhibition of wild type N-terminal GST tagged ALK cytoplasmic domain (1058 to 1620 end residues) (unknown origin) expressed in Sf21 cells incubated for 1 hr in presence of ATP
KARPAS-299 = assay: cells; details: Homo sapiens, KARPAS-299, 96 h
Description: Antiproliferative activity against NPM-ALK positive human KARPAS-299 cells assessed as inhibition of cell growth incubated for 96 hrs by CCK-8 assay

NCI-H2228 [2] = assay: cells; details: Homo sapiens, NCI-H2228, 96 h
Description: Antiproliferative activity against EML4-ALK positive human NCI-H2228 cells assessed as inhibition of cell growth incubated for 96 hrs by MTT assay

A549 = assay: cells; details: Homo sapiens, A549, 96 h
Description: Antiproliferative activity against ALK-negative human A549 cells assessed as inhibition of cell growth incubated for 96 hrs by MTT assay

HCT-116 = assay: cells; details: Homo sapiens, HCT-116, 96 h
Description: Antiproliferative activity against ALK-negative human HCT-116 cells assessed as inhibition of cell growth incubated for 96 hrs by MTT assay

NCI-H2228 [3] = assay: Induction of apoptosis in human NCI-H2228 cells assessed as viable cells at 0.2 uM incubated for 48 hrs by annexinV-FITC/propidium iodide staining based flow cytometry analysis (reference value: 93.63%); assay type: functional; details: read-out: Activity
NCI-H2228 [4] = assay: Induction of apoptosis in human NCI-H2228 cells assessed as viable cells at 0.6 uM incubated for 48 hrs by annexinV-FITC/propidium iodide staining based flow cytometry analysis (reference value: 93.63%); assay type: functional; details: read-out: Activity
NCI-H2228 [5] = assay: Induction of apoptosis in human NCI-H2228 cells assessed as viable cells at 1.8 uM incubated for 48 hrs by annexinV-FITC/propidium iodide staining based flow cytometry analysis (reference value: 93.63%); assay type: functional; details: read-out: Activity
NCI-H2228 [6] = assay: Induction of apoptosis in human NCI-H2228 cells assessed as early apoptotic cells at 0.2 uM incubated for 48 hrs by annexinV-FITC/propidium iodide staining based flow cytometry analysis (reference value: 1.84%); assay type: functional
NCI-H2228 [7] = assay: Induction of apoptosis in human NCI-H2228 cells assessed as early apoptotic cells at 0.6 uM incubated for 48 hrs by annexinV-FITC/propidium iodide staining based flow cytometry analysis (reference value: 1.84%); assay type: functional
NCI-H2228 [8] = assay: Induction of apoptosis in human NCI-H2228 cells assessed as early apoptotic cells at 1.8 uM incubated for 48 hrs by annexinV-FITC/propidium iodide staining based flow cytometry analysis (reference value: 1.84%); assay type: functional
NCI-H2228 [9] = assay: Induction of apoptosis in human NCI-H2228 cells assessed as late apoptotic cells at 0.2 uM incubated for 48 hrs by annexinV-FITC/propidium iodide staining based flow cytometry analysis (reference value: 2.40%); assay type: functional
NCI-H2228 [10] = assay: Induction of apoptosis in human NCI-H2228 cells assessed as late apoptotic cells at 0.6 uM incubated for 48 hrs by annexinV-FITC/propidium iodide staining based flow cytometry analysis (reference value: 2.40%); assay type: functional
NCI-H2228 [11] = assay: Induction of apoptosis in human NCI-H2228 cells assessed as late apoptotic cells at 1.8 uM incubated for 48 hrs by annexinV-FITC/propidium iodide staining based flow cytometry analysis (reference value: 2.40%); assay type: functional
NCI-H2228 [12] = assay: Induction of apoptosis in human NCI-H2228 cells assessed as necrotic at 0.2 uM incubated for 48 hrs by annexinV-FITC/propidium iodide staining based flow cytometry analysis (reference value: 2.12%); assay type: functional
NCI-H2228 [13] = assay: Induction of apoptosis in human NCI-H2228 cells assessed as necrotic at 0.6 uM incubated for 48 hrs by annexinV-FITC/propidium iodide staining based flow cytometry analysis (reference value: 2.12%); assay type: functional
NCI-H2228 [14] = assay: Induction of apoptosis in human NCI-H2228 cells assessed as necrotic at 1.8 uM incubated for 48 hrs by annexinV-FITC/propidium iodide staining based flow cytometry analysis (reference value: 2.12%); assay type: functional
NCI-H2228 [15] = assay: Induction of cell cycle arrest in human NCI-H2228 cells assessed as accumulation of cells at G1 phase at 0.2 uM incubated for 48 hrs propidium iodide staining based flow cytometric analysis (reference value: 59.82%); assay type: functional
NCI-H2228 [16] = assay: Induction of cell cycle arrest in human NCI-H2228 cells assessed as accumulation of cells at G1 phase at 0.6 uM incubated for 48 hrs propidium iodide staining based flow cytometric analysis (reference value: 59.82%); assay type: functional
NCI-H2228 [17] = assay: Induction of cell cycle arrest in human NCI-H2228 cells assessed as accumulation of cells at G1 phase at 1.8 uM incubated for 48 hrs propidium iodide staining based flow cytometric analysis (reference value: 59.82%); assay type: functional
NCI-H2228 [18] = assay: Induction of cell cycle arrest in human NCI-H2228 cells assessed as accumulation of cells at S phase at 0.2 uM incubated for 48 hrs propidium iodide staining based flow cytometric analysis (reference value: 28.16%); assay type: functional
NCI-H2228 [19] = assay: Induction of cell cycle arrest in human NCI-H2228 cells assessed as accumulation of cells at S phase at 0.6 uM incubated for 48 hrs propidium iodide staining based flow cytometric analysis (reference value: 28.16%); assay type: functional
NCI-H2228 [20] = assay: Induction of cell cycle arrest in human NCI-H2228 cells assessed as accumulation of cells at S phase at 1.8 uM incubated for 48 hrs propidium iodide staining based flow cytometric analysis (reference value: 28.16%); assay type: functional
NCI-H2228 [21] = assay: Induction of cell cycle arrest in human NCI-H2228 cells assessed as accumulation of cells at G2/M phase at 0.2 uM incubated for 48 hrs propidium iodide staining based flow cytometric analysis (reference value: 12.02%); assay type: functional
NCI-H2228 [22] = assay: Induction of cell cycle arrest in human NCI-H2228 cells assessed as accumulation of cells at G2/M phase at 0.6 uM incubated for 48 hrs propidium iodide staining based flow cytometric analysis (reference value: 12.02%); assay type: functional
NCI-H2228 [23] = assay: Induction of cell cycle arrest in human NCI-H2228 cells assessed as accumulation of cells at G2/M phase at 1.8 uM incubated for 48 hrs propidium iodide staining based flow cytometric analysis (reference value: 12.02%); assay type: functional

Chain of ALK tyrosine kinase receptor (Q9UM73 whole entry, the tested form may be a part): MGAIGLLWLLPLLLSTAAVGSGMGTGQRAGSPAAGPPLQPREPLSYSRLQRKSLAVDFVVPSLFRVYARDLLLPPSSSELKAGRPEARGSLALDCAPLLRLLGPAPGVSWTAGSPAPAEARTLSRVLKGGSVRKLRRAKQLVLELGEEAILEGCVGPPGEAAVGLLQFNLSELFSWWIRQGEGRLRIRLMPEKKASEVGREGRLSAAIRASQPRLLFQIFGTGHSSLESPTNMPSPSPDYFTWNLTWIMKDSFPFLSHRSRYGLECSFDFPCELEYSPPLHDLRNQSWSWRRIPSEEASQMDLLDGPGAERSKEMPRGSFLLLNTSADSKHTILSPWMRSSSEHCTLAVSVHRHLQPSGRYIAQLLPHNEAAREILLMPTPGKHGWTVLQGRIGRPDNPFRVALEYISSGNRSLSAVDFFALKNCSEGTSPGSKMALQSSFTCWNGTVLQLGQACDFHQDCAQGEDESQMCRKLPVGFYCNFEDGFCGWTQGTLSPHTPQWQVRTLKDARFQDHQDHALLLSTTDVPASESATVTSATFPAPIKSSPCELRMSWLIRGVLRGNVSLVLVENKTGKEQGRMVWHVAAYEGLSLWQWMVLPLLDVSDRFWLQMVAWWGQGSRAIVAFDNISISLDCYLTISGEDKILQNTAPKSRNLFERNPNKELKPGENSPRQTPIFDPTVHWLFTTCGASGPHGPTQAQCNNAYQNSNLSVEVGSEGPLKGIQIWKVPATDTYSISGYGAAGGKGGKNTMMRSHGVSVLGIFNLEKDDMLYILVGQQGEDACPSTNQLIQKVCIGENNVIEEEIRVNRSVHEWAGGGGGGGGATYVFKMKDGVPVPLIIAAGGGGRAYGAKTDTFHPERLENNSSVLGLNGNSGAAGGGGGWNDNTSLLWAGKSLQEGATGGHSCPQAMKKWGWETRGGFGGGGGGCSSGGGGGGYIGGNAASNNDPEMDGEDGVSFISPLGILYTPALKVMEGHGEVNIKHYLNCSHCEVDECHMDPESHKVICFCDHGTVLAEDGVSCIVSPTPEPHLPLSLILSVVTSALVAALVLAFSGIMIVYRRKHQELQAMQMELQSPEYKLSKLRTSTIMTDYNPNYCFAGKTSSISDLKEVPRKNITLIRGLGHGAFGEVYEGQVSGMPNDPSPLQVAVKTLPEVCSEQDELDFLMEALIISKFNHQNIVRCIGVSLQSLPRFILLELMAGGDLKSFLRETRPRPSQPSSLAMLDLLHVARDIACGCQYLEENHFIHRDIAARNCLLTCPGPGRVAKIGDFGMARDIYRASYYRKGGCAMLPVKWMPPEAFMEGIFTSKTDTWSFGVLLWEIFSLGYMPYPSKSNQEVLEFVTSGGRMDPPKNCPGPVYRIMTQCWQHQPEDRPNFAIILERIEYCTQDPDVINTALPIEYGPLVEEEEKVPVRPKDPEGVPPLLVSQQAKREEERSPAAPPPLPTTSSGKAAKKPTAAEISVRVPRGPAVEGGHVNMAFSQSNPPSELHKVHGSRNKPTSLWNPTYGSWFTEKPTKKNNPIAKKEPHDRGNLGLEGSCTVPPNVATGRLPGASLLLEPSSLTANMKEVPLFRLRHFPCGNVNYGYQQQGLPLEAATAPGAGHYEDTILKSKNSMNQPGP

Cc1cc(Nc2ncc(Cl)c(Nc3ccccc3S(=O)(=O)C(C)C)n2)c(OC(C)C)cc1C1CCN(C(=S)SCCN2CCN(C)CC2)CC1
IC50 [1]: > 100 nM | IC50 (KARPAS-299): 170 nM | IC50 (NCI-H2228 [2]): 270 nM | IC50 (A549): > 10000 nM | IC50 (HCT-116): 2190 nM

Cc1cc(Nc2ncc(Cl)c(Nc3ccccc3S(=O)(=O)C(C)C)n2)c(OC(C)C)cc1C1CCN(C(=O)SCC(=S)N2CCS(=O)(=O)CC2)CC1
viability at 0.2 µM (NCI-H2228 [3]): 89.8% | viability at 0.6 µM (NCI-H2228 [4]): 84.4% | viability at 1.8 µM (NCI-H2228 [5]): 79.1% | Activity (NCI-H2228 [6]): 4.31% | Activity (NCI-H2228 [7]): 5.7% | Activity (NCI-H2228 [8]): 8.84% | Activity (NCI-H2228 [9]): 3.65% | Activity (NCI-H2228 [10]): 6.37% | Activity (NCI-H2228 [11]): 8.06% | Activity (NCI-H2228 [12]): 2.24% | Activity (NCI-H2228 [13]): 3.5% | Activity (NCI-H2228 [14]): 4.04% | Activity (NCI-H2228 [15]): 59.7% | Activity (NCI-H2228 [16]): 59.11% | Activity (NCI-H2228 [17]): 56.55% | Activity (NCI-H2228 [18]): 24.71% | Activity (NCI-H2228 [19]): 22.74% | Activity (NCI-H2228 [20]): 16.1% | Activity (NCI-H2228 [21]): 15.59% | Activity (NCI-H2228 [22]): 18.15% | Activity (NCI-H2228 [23]): 27.35% | IC50 (KARPAS-299): 70 nM | IC50 (NCI-H2228 [2]): 70 nM | IC50 (A549): > 10000 nM | IC50 (HCT-116): 5530 nM

Cc1cc(Nc2ncc(Cl)c(Nc3ccccc3S(=O)(=O)C(C)C)n2)c(OC(C)C)cc1C1CCN(C(=O)SCC(=S)N2CCNC(C)C2)CC1 (stereo not given)
IC50 [1]: > 100 nM | IC50 (KARPAS-299): 210 nM | IC50 (NCI-H2228 [2]): 160 nM | IC50 (A549): > 10000 nM | IC50 (HCT-116): 2840 nM
